Results from ChEMBL document CHEMBL1201862, “PubChem BioAssay data set” (2004).
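Five compound concentrations were applied to cells in 96-well plates for 48 hours; endpoints were derived by simple linear interpolation of the resulting dose-response curve. Abbreviation: GI50, concentration required for 50% inhibition of growth.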 Activity calls are given as the source filed them. Cut-off read from the data, not from the text of the source: active = GI50 up to about 1.1 µM and inactive = higher. Where a SMILES comes first, the peptide text is derived from it. [ ]: non-standard residue; d: D form. The star is where a group is joined. Phe(4-NO2) = N[CH](Cc1ccc([N+](=O)[O-])cc1)C(=O)O; Boc = CC(C)(C)OC(=O)*; OtBu = CC(C)(C)O*

Assays:
Assay in all cases: NCI anticancer screen, dose series, 48 h
RXF 393 = system: RXF 393
CAKI-1 = system: CAKI-1
U-251 = system: U-251
HCT-116 = system: HCT-116
MDA-MB-231 = system: MDA-MB-231
786-0 = system: 786-0
OVCAR-4 = system: OVCAR-4
NCI/ADR-RES = system: NCI/ADR-RES
UO-31 = system: UO-31
RPMI-8226 = system: RPMI-8226
NCI-H522 = system: NCI-H522
SK-OV-3 = system: SK-OV-3
CCRF-CEM = system: CCRF-CEM
SR = system: SR
OVCAR-5 = system: OVCAR-5
MCF7 = system: MCF7
SF-539 = system: SF-539
SK-MEL-28 = system: SK-MEL-28
MDA-N = system: MDA-N
UACC-62 = system: UACC-62
HOP-62 = system: HOP-62
SN12C = system: SN12C
SK-MEL-5 = system: SK-MEL-5
HL-60 = system: HL-60
NCI-H23 = system: NCI-H23
A549 = system: A549
T47D = system: T47D
Malme-3M = system: Malme-3M
HCC 2998 = system: HCC 2998
NCI-H226 = system: NCI-H226
MDA-MB-435 = system: MDA-MB-435
MOLT-4 = system: MOLT-4
SNB-19 = system: SNB-19
NCI-H460 = system: NCI-H460
TK-10 = system: TK-10
EKVX = system: EKVX
HCT-15 = system: HCT-15
PC-3 = system: PC-3
HT-29 = system: HT-29
SW-620 = system: SW-620
ACHN = system: ACHN
OVCAR-3 = system: OVCAR-3
K562 = system: K562
M14 = system: M14
COLO 205 = system: COLO 205
OVCAR-8 = system: OVCAR-8
IGROV-1 = system: IGROV-1
SK-MEL-2 = system: SK-MEL-2
HOP-92 = system: HOP-92
SF-295 = system: SF-295
UACC-257 = system: UACC-257
KM12 = system: KM12
LOX IMVI = system: LOX IMVI
DU-145 = system: DU-145
SNB-75 = system: SNB-75
SF-268 = system: SF-268
Hs-578T = system: Hs-578T
A498 = system: A498

CC(=O)OCC1OC(O[C@@H]2C[C@H]3C(C)(C)[C@H](OC(C)=O)CC[C@]3(C)[C@H]3CC[C@@H]4[C@]5(CC[C@@]4(C)[C@@]32C)O[C@@H]([C@H](O)C(C)(C)O)C[C@@H]5C)C(O)C(O)C1O (stereo partly specified)
GI50 (RXF 393): 4.4 µM (inactive)
GI50 (CAKI-1): 3.23 µM (inactive)
GI50 (U-251): 6.05 µM (inactive)

CC(=O)NC(CCC(=O)OC(C)(C)C)C(=O)NC(CCC(=O)OC(C)(C)C)C(=O)NC(Cc1ccc([N+](=O)[O-])cc1)C(=O)NC(CCCCNC(=O)OC(C)(C)C)C(=O)NC(CCCCNC(=O)OC(C)(C)C)C(=O)NCC(=O)O (stereo unspecified) (Ac-E(OtBu)E(OtBu)[Phe(4-NO2)]K(Boc)K(Boc)G-OH; configuration not given here)
GI50 (HCT-116): > 100 µM (inactive)
GI50 (MDA-MB-231): > 100 µM (inactive)
GI50 (786-0): > 100 µM (inactive)
GI50 (OVCAR-4): > 100 µM (inactive)
GI50 (NCI/ADR-RES): > 100 µM (inactive)
GI50 (UO-31): > 100 µM (inactive)
GI50 (RPMI-8226): > 100 µM (inactive)
GI50 (NCI-H522): > 100 µM (inactive)
GI50 (SK-OV-3): > 100 µM (inactive)
GI50 (CCRF-CEM): > 100 µM (inactive)
GI50 (SR): > 100 µM (inactive)
GI50 (OVCAR-5): > 100 µM (inactive)
GI50 (MCF7): > 100 µM (inactive)
GI50 (SF-539): > 100 µM (inactive)
GI50 (SK-MEL-28): > 100 µM (inactive)
GI50 (MDA-N): > 100 µM (inactive)
GI50 (UACC-62): > 100 µM (inactive)
GI50 (HOP-62): > 100 µM (inactive)
GI50 (SN12C): > 100 µM (inactive)
GI50 (SK-MEL-5): 7.35 µM (inactive)
GI50 (HL-60): > 100 µM (inactive)
GI50 (RXF 393): > 100 µM (inactive)
GI50 (NCI-H23): > 100 µM (inactive)
GI50 (A549): > 100 µM (inactive)
GI50 (T47D): > 100 µM (inactive)
GI50 (Malme-3M): > 100 µM (inactive)
GI50 (HCC 2998): > 100 µM (inactive)
GI50 (NCI-H226): > 100 µM (inactive)
GI50 (MDA-MB-435): > 100 µM (inactive)
GI50 (MOLT-4): > 100 µM (inactive)
GI50 (SNB-19): > 100 µM (inactive)
GI50 (NCI-H460): > 100 µM (inactive)
GI50 (TK-10): > 100 µM (inactive)
GI50 (EKVX): > 100 µM (inactive)
GI50 (CAKI-1): > 100 µM (inactive)
GI50 (U-251): > 100 µM (inactive)
GI50 (HCT-15): > 100 µM
GI50 (PC-3): > 100 µM (inactive)
GI50 (HT-29): > 100 µM (inactive)
GI50 (SW-620): > 100 µM (inactive)
GI50 (ACHN): > 100 µM (inactive)
GI50 (OVCAR-3): > 100 µM (inactive)
GI50 (K562): > 100 µM (inactive)
GI50 (M14): 20.5 µM (inactive)
GI50 (COLO 205): > 100 µM (inactive)
GI50 (OVCAR-8): > 100 µM (inactive)
GI50 (IGROV-1): > 100 µM (inactive)
GI50 (SK-MEL-2): 75.2 µM (inactive)
GI50 (HOP-92): > 100 µM (inactive)
GI50 (SF-295): > 100 µM (inactive)
GI50 (UACC-257): > 100 µM (inactive)
GI50 (KM12): > 100 µM (inactive)
GI50 (LOX IMVI): > 100 µM (inactive)
GI50 (DU-145): > 100 µM (inactive)
GI50 (SNB-75): > 100 µM (inactive)
GI50 (SF-268): > 100 µM (inactive)

Cc1cc2c3c(c1)CCCN3CCC2
GI50 (HCT-116): > 10 µM (inactive)
GI50 (MDA-MB-231): > 10 µM (inactive)
GI50 (786-0): > 10 µM (inactive)
GI50 (OVCAR-4): > 10 µM (inactive)
GI50 (NCI/ADR-RES): > 10 µM (inactive)
GI50 (UO-31): > 10 µM (inactive)
GI50 (RPMI-8226): > 10 µM (inactive)
GI50 (NCI-H522): > 10 µM (inactive)
GI50 (SK-OV-3): > 10 µM (inactive)
GI50 (CCRF-CEM): > 10 µM (inactive)
GI50 (SR): > 10 µM (inactive)
GI50 (MCF7): > 10 µM (inactive)
GI50 (Hs-578T): > 10 µM (inactive)
GI50 (SF-539): > 10 µM (inactive)
GI50 (SK-MEL-28): > 10 µM (inactive)
GI50 (MDA-N): > 10 µM (inactive)
GI50 (UACC-62): > 10 µM (inactive)
GI50 (HOP-62): > 10 µM (inactive)
GI50 (SN12C): > 10 µM (inactive)
GI50 (SK-MEL-5): > 10 µM (inactive)
GI50 (HL-60): > 10 µM (inactive)
GI50 (RXF 393): > 10 µM (inactive)
GI50 (NCI-H23): > 10 µM (inactive)
GI50 (A549): > 10 µM (inactive)
GI50 (T47D): > 10 µM (inactive)
GI50 (Malme-3M): > 10 µM (inactive)
GI50 (HCC 2998): > 10 µM (inactive)
GI50 (NCI-H226): > 10 µM (inactive)
GI50 (MDA-MB-435): > 10 µM (inactive)
GI50 (MOLT-4): > 10 µM (inactive)
GI50 (SNB-19): > 10 µM (inactive)
GI50 (NCI-H460): > 10 µM (inactive)
GI50 (TK-10): > 10 µM (inactive)
GI50 (EKVX): > 10 µM (inactive)
GI50 (CAKI-1): > 10 µM (inactive)
GI50 (U-251): > 10 µM (inactive)
GI50 (HCT-15): > 10 µM
GI50 (PC-3): > 10 µM (inactive)
GI50 (HT-29): > 10 µM (inactive)
GI50 (SW-620): > 10 µM (inactive)
GI50 (ACHN): > 10 µM (inactive)
GI50 (OVCAR-3): > 10 µM (inactive)
GI50 (K562): > 10 µM (inactive)
GI50 (M14): > 10 µM (inactive)
GI50 (COLO 205): > 10 µM (inactive)
GI50 (A498): > 10 µM (inactive)
GI50 (OVCAR-8): > 10 µM (inactive)
GI50 (IGROV-1): > 10 µM (inactive)
GI50 (SK-MEL-2): > 10 µM (inactive)
GI50 (HOP-92): > 10 µM (inactive)
GI50 (SF-295): > 10 µM (inactive)
GI50 (UACC-257): > 10 µM (inactive)
GI50 (KM12): > 10 µM (inactive)
GI50 (LOX IMVI): > 10 µM (inactive)
GI50 (DU-145): > 10 µM (inactive)
GI50 (SNB-75): > 10 µM (inactive)
GI50 (SF-268): > 10 µM (inactive)
